Where two headings read alike, the source gives them in different places.
Assays:
[1] = biological target: T1, ERβ (Homo sapiens, UniProt Q92731); assay: ER binding competitor assay (fluorescent estrogen ES2), ERβ; set-up: purchased Invitrogen
[2] = biological target: T1, ERβ; assay: ERE-dependent luciferase gene transcription in HEK:ERβ cells; assay type: cell-based; set-up: expressed in transfected cells; host or cells: HEK-293 (HEK:ERβ clone, with pERE-tk-Luciferase)
Method: (§1) Assessment of ER/ERE-dependent luciferase gene transcription in MCF-7:D5L (express ERα) and HEK:ERβ cells (express ERβ) and determination of ER transcriptional agonism was carried as already described. Briefly, the cells were plated in 96-well plates at a density of 12,000 cells per well in phenol-red-free MEM (MCF-7:D5L cells) or phenol-red-free DMEM (HEK:ERβ cells) supplemented with 1 μg/mL insulin and 5% DCC-FBS. […] The AUC of the isoflavonoids of each group were then expressed as % of the AUC of the respective archetypal isoflavone. Since AUC data combine the efficacy as well as the potency of cell response into a single parameter, the %AUC data were considered here as a more reliable measure of relative ER/ERE-dependent luciferase expression of the test compounds.

[3] = test system: Ishikawa cells; assay: Induction of AlkP expression in Ishikawa cells; assay type: cell-based, human; conditions: for Induction of Alkaline Phosphatase Expression (Ishikawa cells) AUC (%): % of AUC of luciferase response of archetypal 3, 4, 5 or 8 up to 0.3, 10, 1.0 and 3.0 μM; for EC (25% of 0.1 nM E2 effect) / activation at 1 µM / EC50: Homo sapiens, Ishikawa; for EC (25% of 0.1 nM E2 effect) / activation at 1 µM: 72 h; for EC (25% of 0.1 nM E2 effect): concentration required to achieve 25% of the effect of 0.1 nM E2, read-out: Induction of Alkaline Phosphatase Expression (Ishikawa cells) EC25E2; for activation at 1 µM: read-out: Induction of AlkP expression (Ishikawa cells) Agonism at 1μΜ (% of 0.1nM E2); for EC50: read-out: Induction of Alkaline Phosphatase Expression (Ishikawa cells) EC50E2
Method: Induction of AlkP expression of Ishikawa cells is considered as a reliable in vitro measure of estrogenic activity. Assessment of AlkP expression in Ishikawa cells was carried as already described. Briefly, the cells were plated in 96-well plates at a density of 12,000 cells per well in phenol-red-free MEM supplemented with 1 μg/mL insulin and 5% DCC-FBS. […] Data on the dependence of AlkP activity on isoflavonoid concentration were curve fitted using SigmaPlot10 (SPSS Inc) and the numerical data of curve fitting were used to determine AUC as described above, using for the calculation of AUC of a particular AlkP response the very same concentration used for the respective luciferase response. The AUC of AlkP responses of the isoflavonoids of a group were expressed as % of the AUC of the luciferase response of the respective archetypal isoflavone.

[4] = biological target: T2, ERα (Homo sapiens, UniProt P03372); assay: ERE-dependent luciferase gene transcription in MCF-7:D5L cells; assay type: cell-based; set-up: MCF-7:D5L cells, a clone of MCF-7 cells stably transfected with an Estrogen Response Element (ERE)-endowed reporter plasmid; endogenous in cells; host or cells: MCF-7:D5L (MCF-7 clone carrying pERE-Gl-Luciferase); conditions: for Induction of ERE-dependent Luciferase Transcription (MCF-7:D5L cells) AUC (%): % of AUC of luciferase response of archetypal 3, 4, 5 or 8 up to 0.3, 10, 1.0 and 3.0 μM; for Induction of luciferase gene transcription through ERα, MCF-7:D5L cells, Agonism at 1μΜ (% of 0.1nM E2): compounds 1 μM, estradiol 0.1 nM, 18 h; for Induction of ERE-dependent Luciferase Transcription (MCF-7:D5L cells) EC25E2: concentration required to achieve 25% of the effect of 0.1 nM E2
T2 sequence (P03372 1-595): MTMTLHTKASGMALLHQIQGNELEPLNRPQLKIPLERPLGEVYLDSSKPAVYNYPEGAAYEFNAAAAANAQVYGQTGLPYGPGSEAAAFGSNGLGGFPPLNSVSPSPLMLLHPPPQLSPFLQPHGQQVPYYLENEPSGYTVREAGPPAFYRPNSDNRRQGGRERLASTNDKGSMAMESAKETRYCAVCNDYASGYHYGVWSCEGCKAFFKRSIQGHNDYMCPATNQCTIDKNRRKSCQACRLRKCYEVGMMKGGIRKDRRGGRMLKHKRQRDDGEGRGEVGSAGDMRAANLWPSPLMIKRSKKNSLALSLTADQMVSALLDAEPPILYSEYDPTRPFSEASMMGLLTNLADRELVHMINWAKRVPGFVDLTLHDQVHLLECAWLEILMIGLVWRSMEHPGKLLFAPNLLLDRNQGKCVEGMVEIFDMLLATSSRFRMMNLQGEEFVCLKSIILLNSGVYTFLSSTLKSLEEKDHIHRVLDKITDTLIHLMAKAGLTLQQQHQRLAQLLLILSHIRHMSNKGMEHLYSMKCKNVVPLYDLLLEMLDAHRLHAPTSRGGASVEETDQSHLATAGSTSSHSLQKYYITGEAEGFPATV
Method: as §1

[5] = biological target: T1, ERβ; set-up: purchased Invitrogen; conditions: cited from earlier work
[6] = biological target: T2, ERα; set-up: purchased Invitrogen; conditions: cited from earlier work
[7] = test system: MCF-7 cells; assay: MCF-7 cell proliferation (MTT); assay type: cell-based, human; conditions: for activation at 1 µM: Homo sapiens, MCF7, 72 h, read-out: Induction of cell proliferation (MCF-7 cells) Agonism at 1μΜ (% of 0.1nM E2)
Method: Test compound effects on the proliferation of MCF-7 and MDA-MB-231 cells were assessed as previously described.

[8] = test system: HT22 cells; assay: Glutamate toxicity (oxytosis) of HT22 neuronal cells (MTT); conditions: 1 nM estradiol or 1 μM compound
Method: Glutamate-challenged HT22 cells suffer oxidative stress-induced cell death (oxytosis) within 24 h due to glutathione depletion and consequent massive accumulation of ROS [42]. The efficacy of test compounds to prevent oxytosis of HT22 cells was assessed as already described. Briefly, HT22 cells were plated in 96-well flat bottom plates at a density of 4,000 cells per well in 100 μl of DMEM (low glucose) containing 2% FBS. 24 h after plating, the cells were treated with test compounds or compound diluent (0.1% DMSO) and then challenged with 5 mM glutamate for 24 h. […] Non-challenged cells served to assess test compound effects on cell viability, whereas challenged cells served to assess the neuroprotective activity of test compounds.

[9] = test system: RAW 264.7 cells; assay: Differentiation of RAW 264.7 cells to osteoclasts, TRAP activity; assay type: cell-based, mouse; conditions: RANKL 50 ng/ml + E2 1 nM or compound 1 μM; 3 days; DF plus vehicle = 100
Method: Clones of RAW 264.7 cells competent to differentiate to multinuclear osteoclasts upon activation with RANKL provide valuable information on the regulation of osteoclast differentiation. Differentiation-competent RAW cells (ATCC TIB-71) were seeded in 96-well plates at a density of 9,600 cells per well. The cells were plated in the presence of test compounds or compound diluent (0.1% DMSO) and, 4 h after plating, were exposed for 3 days to 50 ng/ml RANKL or to plain medium. Osteoclastic differentiation was assessed via induction of Tartrate-Resistant Acid Phosphatase (TRAP) activity. The cells were washed with PBS and incubated with 25μl lysis buffer (0.4 M NaCl, 25 mM Hepes pH 7.7, 1.5 mM MgCl2, 0.2 mM EDTA, 1% NP40) for 5 min on ice.

[10] = test system: TNFα mRNA; conditions: cited from earlier work
[11] = test system: RAW 264.7 cells; conditions: cited from earlier work
[12] = test system: HT22 cells; conditions: 1 μM estradiol or 2.5 μM genistein; cited from earlier work
[13] = test system: TNFα mRNA; assay: LPS-induced TNFα mRNA expression in RAW 264.7 cells (RT-qPCR); assay type: cell-based, mouse
Method: To assess TNFα mRNA expression, RAW 264.7 cells were plated in 6-well plates in alpha-MEM medium supplemented with 10% DCC-FBS, at a density of 300,000 cells per well, maintained in culture for 72 h and then exposed to vehicle (0.3% DMSO) or 3 μΜ test compound for 20 min or 24 h prior to stimulation with 100 ng/ml lipopolysaccharide (Sigma L4391) for 1 h. Extraction of total RNA, reverse transcription (RT) and quantitative PCR (qPCR) analysis of mRNA expression levels were performed as previously described. Relative gene expression levels were calculated by the comparative Ct method using the formula 2^(-ΔCt). Tumor necrosis factor alpha (TNFα) mRNA levels were normalized to the respective levels of […] (GAPDH). Test compound effects on the relative number of viable cells were assessed using crystal violet and a Safire II microplate reader (Tecan) as previously described. […] The following primers were used: […]

[14] = test system: MDA-MB-231 cells; assay: MDA-MB-231 cell proliferation (MTT); assay type: cell-based; conditions: 0.1 nM estradiol, 1 μM ICI182,780, isoflavonoids 1 μM
Method: Test compound effects on the proliferation of MCF-7 and MDA-MB-231 cells were assessed as previously described. […] Relative numbers of cells exposed to estradiol or to ICI182,780 acted as positive and negative control, respectively.

[15] = isoflavonoids 1 μM, statistically significant effects
[16] = concentration required to achieve 50% of the effect of 0.1 nM E2
[17] = 1 μM ICI182,780, isoflavonoids 1 μM

T1 sequence (Q92731 whole entry): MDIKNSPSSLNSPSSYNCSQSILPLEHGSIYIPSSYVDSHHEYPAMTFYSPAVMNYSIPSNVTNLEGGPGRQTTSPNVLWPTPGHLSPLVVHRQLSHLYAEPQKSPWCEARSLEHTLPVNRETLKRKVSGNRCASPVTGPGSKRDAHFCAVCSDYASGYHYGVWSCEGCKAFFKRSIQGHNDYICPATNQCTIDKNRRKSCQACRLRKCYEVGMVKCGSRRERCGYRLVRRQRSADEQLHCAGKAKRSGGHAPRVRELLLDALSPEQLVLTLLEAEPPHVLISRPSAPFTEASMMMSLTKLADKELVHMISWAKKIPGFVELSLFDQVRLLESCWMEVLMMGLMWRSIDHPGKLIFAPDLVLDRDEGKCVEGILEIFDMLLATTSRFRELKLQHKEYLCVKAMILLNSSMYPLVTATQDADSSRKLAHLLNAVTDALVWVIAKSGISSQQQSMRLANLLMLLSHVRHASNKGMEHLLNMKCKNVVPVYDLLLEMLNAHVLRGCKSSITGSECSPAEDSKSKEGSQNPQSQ

EC50 [3, 16] [nM]	Induction of ERE-dependent Luciferase Transcription (MCF-7:D5L cells) AUC (%) [4] [%]	Induction of luciferase gene transcription through ERα, MCF-7:D5L cells, Agonism at 1μΜ (% of 0.1nM E2) [4]	Induction of ERE-dependent Luciferase Transcription (MCF-7:D5L cells) EC25E2 [4] [nM]	SMILES	Induction of Alkaline Phosphatase Expression (Ishikawa cells) AUC (%) [3] [%]	EC (25% of 0.1 nM E2 effect) [3] [µM]	activation at 1 µM [3] [%]	mean value (and the range) of previously reported RBAβ [5]	mean value (and the range) of previously reported RBAα [6]	activation at 1 µM [7] [%]	also measured
420 ± 30	33±8	83 ± 16 (Full) % of 0.1nM E2	160 ± 90	COc1ccc(-c2coc3cc(O)cc(O)c3c2=O)cc1 [Compound 1, Biochanin A]	26±2	0.19 ± 0.01	53 ± 9	0.69 (0.18–1.20)	0.18 (0.02–0.34)	70 ± 10	selectivity for ERβ (class of RBAβ/RBAα) [1]: moderate (3–10); activation at 1 µM ([2]; 18 h, read-out: Induction of luciferase gene transcription through ERβ, HEK:ERβ cells, Agonism at 1μΜ (% of 0.1nM E2)): 31 ± 15%; ERβ-dependent gene transcription agonist effect compared to the effect of 0.1 nM estradiol [2, 15]: lower than; Ratio of AUC (AlkP / Lucif) ([3]; AUCAlkP / AUCluciferase): 0.79±0.04; AlkP-inducing agonist effect compared to the effect of 0.1 nM estradiol [3, 15]: lower than; EC50 ([4]; concentration required to achieve 50% of the effect of 0.1 nM E2, read-out: Induction of ERE-dependent Luciferase Transcription (MCF-7:D5L cells) EC50E2): 300 ± 30 nM; RBAβ / RBAα ([5]; ERβ-binding selectivity, ref 51 (Fokialakis et al.)): 3.83
–	–	–	–	O=c1c(-c2ccc(O)cc2)coc2cc(O)cc(O)c12 [Compound 3, genistein]	–	0.03 ± 0.01	110 ± 11	–	–	79 ± 6	viability of HT22 cells under normal growth conditions compared to vehicle-treated cells ([8]; no glutamate): not different; viability of glutamate-treated HT22 cells (% of glutamate-free cells) ([8]; 5 mM glutamate 24 h): ≤ 40%; Differentiation of RAW 267.4 cells, TRAP expression (%) [9]: 106±11%; EC50 [3]: 50 ± 20 nM; inhibition of TNFα gene transcription in RAW 264.7 cells ([10]; pre-incubation with low micromolar concentrations): 30–40%; concentrations that inhibit osteoclastic differentiation of RAW 264.7 cells [11]: ≥ 10 µM; prevention of oxytosis of glutamate-challenged HT22 cells [12]: unable to prevent oxytosis; reduction of LPS induction of TNFα mRNA expression ([13]; 3 μM, pre-treatment 24 h, LPS 100 ng/ml 1 h): 15%; suppression of LPS-stimulated TNFα mRNA expression ([13]; pre-incubated with 3 μM isoflavonoid prior to the stimulation): ineffective
1300 ± 150	100±13	50 ± 12 (Partial) ^* % of 0.1nM E2	380 ± 70	O=c1c(-c2ccc(O)cc2)coc2cc(O)ccc12 [Compound 5, daidzein]	104±19	0.46 ± 0.05	54 ± 4	0.65 (0.04–2.11)	0.20 (0.01–0.55)	59 ± 7	Induction of luciferase gene transcription through ERβ, HEK:ERβ cells, Agonism at 1μΜ (% of 0.1nM E2) ([2]; compounds 1 μM, estradiol 0.1 nM, 18 h): 84 ± 8 (Full) % of 0.1nM E2; ERα-dependent gene transcription agonist effect compared to the effect of 0.1 nM estradiol [4, 15]: lower than; RBAβ ([5]; estradiol = 100, ref 27 (Halabalaki et al.)): 0.36 ± 0.09
–	–	–	–	C[C@]12CC[C@@H]3c4ccc(O)cc4C[C@@H](CCCCCCCCC[S+]([O-])CCCC(F)(F)C(F)(F)F)[C@H]3[C@@H]1CC[C@@H]2O (stereo partly shown) [ICI182,780, reference compound]	–	–	–	–	–	–	suppression of isoflavonoid-induced AlkP expression [3, 17]: fully suppressed; proliferation of MDA-MB-231 cells [14]: not affected; suppression of isoflavonoid cell proliferation effects [7, 17]: fully suppressed
–	–	–	–	Oc1ccc(C2COc3cc(O)ccc3C2)cc1 (stereo not shown) [equol, 4',7-isoflavandiol]	–	–	–	–	–	–	suppression of LPS-induced TNFα mRNA expression and cytokine release ([10]; 1–10 μM, ER-independent): dose-dependent suppression
